Data from patent US20240376099A1, “COMPOUNDS AND COMPOSITIONS AS INHIBITORS OF ENDOSOMAL TOLL-LIKE RECEPTORS” (Novartis AG, priority 2016, published 2024).

Biological target: T1, TLR7 (Homo sapiens, UniProt Q9NYK1)
T1 construct: Fresh blood was collected from normal human donors; endogenous in cells; host or cells: human PBMCs from fresh donor blood
T1 sequence (Q9NYK1 27-1049): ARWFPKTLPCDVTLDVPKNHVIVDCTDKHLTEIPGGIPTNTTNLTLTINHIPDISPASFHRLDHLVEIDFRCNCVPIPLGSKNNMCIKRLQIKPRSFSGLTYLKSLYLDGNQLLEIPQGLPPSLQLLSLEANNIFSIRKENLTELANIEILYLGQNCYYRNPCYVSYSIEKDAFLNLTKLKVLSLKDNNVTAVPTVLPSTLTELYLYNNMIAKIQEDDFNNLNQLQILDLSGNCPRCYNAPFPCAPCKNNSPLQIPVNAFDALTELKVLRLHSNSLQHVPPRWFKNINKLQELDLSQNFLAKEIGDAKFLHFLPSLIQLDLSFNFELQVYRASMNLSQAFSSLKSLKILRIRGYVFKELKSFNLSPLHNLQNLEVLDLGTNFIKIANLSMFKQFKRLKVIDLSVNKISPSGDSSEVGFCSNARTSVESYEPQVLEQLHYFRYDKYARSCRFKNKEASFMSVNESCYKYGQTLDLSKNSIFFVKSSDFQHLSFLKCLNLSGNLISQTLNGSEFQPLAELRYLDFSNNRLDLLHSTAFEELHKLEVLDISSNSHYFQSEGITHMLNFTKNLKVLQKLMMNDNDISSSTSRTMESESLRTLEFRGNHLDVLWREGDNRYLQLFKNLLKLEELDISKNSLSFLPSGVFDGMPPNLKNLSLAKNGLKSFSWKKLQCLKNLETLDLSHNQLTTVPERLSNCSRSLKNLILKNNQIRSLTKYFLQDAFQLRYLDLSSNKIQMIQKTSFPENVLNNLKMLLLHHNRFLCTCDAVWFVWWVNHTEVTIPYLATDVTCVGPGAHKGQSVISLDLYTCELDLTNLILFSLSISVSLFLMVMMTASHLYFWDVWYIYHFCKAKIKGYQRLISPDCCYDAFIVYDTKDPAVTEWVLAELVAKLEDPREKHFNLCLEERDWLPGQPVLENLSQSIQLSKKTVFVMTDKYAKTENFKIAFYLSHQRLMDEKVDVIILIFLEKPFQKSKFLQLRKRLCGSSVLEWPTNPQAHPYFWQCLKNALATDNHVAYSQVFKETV
Experiment: huPBMC TLR7 Antagonist IFNα Assay
Type: cell-based
Details: human PBMCs stimulated with ssRNA40 10 μg/mL (DOTAP), 14-16 hrs; IFNα2b AlphaLISA read-out
Summary of the method: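 Human PBMCs from fresh donor blood (150,000 cells/well) stimulated 14–16 h at 37 °C with DOTAP-complexed ssRNA40 (final 1 μg/ml for TLR8, 10 μg/mL for TLR7) or ODN2216 (final 0.3 μM, TLR9), 0.25% DMSO, ten-point 1/3 compound dilutions. Supernatant IL-6 read by HTRF (TLR8); IFNα by IFNα2b AlphaLISA (TLR7/TLR9).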

`CCNCC(=O)NC12CCC(Cn3nc(C)c4c3CCN(c3nc(C)nc5[nH]ncc35)C4)(CC1)CC2` [compound 20, 2-(ethylamino)-N-(4-((3-methyl-5-(6-methyl-1H-pyrazolo[3,4-d]pyrimidin-4-yl)-4,5,6,7-tetrahydro-1H-pyrazolo[4,3-c]pyridin-1-yl)methyl)bicyclo[2.2.2]octan-1-yl)acetamide] and `CCNCC(=O)NC12CCC(Cn3nc(C)c4c3CCN(c3nc(C)nc5c(C)nn(C)c35)C4)(CC1)CC2` [compound 22, 2-(ethylamino)-N-(4-((3-methyl-5-(1,3,5-trimethyl-1H-pyrazolo[4,3-c]pyrimidin-7-yl)-4,5,6,7-tetrahydro-1H-pyrazolo[4,3-c]pyridin-1-yl)methyl)bicyclo[2.2.2]octan-1-yl)acetamide] are within 1.5-fold of each other in IC50: 25 nM for the first, 33 nM for the second.

Going from `Cc1cc(N2CCc3c(c(C)nn3CC34CCC(NCC(=O)N5CCCCC5)(CC3)CC4)C2)c2cnn(C)c2n1` [compound 99, 2-((4-((5-(1,6-dimethyl-1H-pyrazolo[3,4-b]pyridin-4-yl)-3-methyl-4,5,6,7-tetrahydro-1H-pyrazolo[4,3-c]pyridin-1-yl)methyl)bicyclo[2.2.2]octan-1-yl)amino)-1-(piperidin-1-yl)ethanone] to `Cc1cc(N2CCc3c(c(C)nn3CC34CCC(NCC5(CO)COC5)(CC3)CC4)C2)c2cnn(C)c2n1` [compound 137, (3-(((4-((5-(1,6-dimethyl-1H-pyrazolo[3,4-b]pyridin-4-yl)-3-methyl-4,5,6,7-tetrahydro-1H-pyrazolo[4,3-c]pyridin-1-yl)methyl)bicyclo[2.2.2]octan-1-yl)amino)methyl)oxetan-3-yl)methanol], the IC50 rises from 40 nM to 72 nM (1.8-fold).

First: Cc1cc(N2CCc3c(c(C)nn3CC34CCC(n5ccnc5)(CC3)CC4)C2)c2cnn(C)c2n1 [Compound No. 119, 1-((4-(1H-imidazol-1-yl)bicyclo[2.2.2]octan-1-yl)methyl)-5-(1,6-dimethyl-1H-pyrazolo[3,4-b]pyridin-4-yl)-3-methyl-4,5,6,7-tetrahydro-1H-pyrazolo[4,3-c]pyridine]
Second: Cc1cc(N2CCc3c(c(C)nn3CC34CCC(N(C)C)(CC3)CC4)C2)c2cnn(C)c2n1 [Compound No. 43, 4-((5-(1,6-dimethyl-1H-pyrazolo[3,4-b]pyridin-4-yl)-3-methyl-4,5,6,7-tetrahydro-1H-pyrazolo[4,3-c]pyridin-1-yl)methyl)-N,N-dimethylbicyclo[2.2.2]octan-1-amine]
The IC50 of the first is 2.7-fold lower: 6 nM for the first, 16 nM for the second.

First: Cc1cc(N2CCc3c(c(C)nn3CC34CCC(NC(=O)[C@@H]5COCCN5)(CC3)CC4)C2)c2cnn(C)c2n1 [Compound No. 8, (S)—N-(4-((5-(1,6-dimethyl-1H-pyrazolo[3,4-b]pyridin-4-yl)-3-methyl-4,5,6,7-tetrahydro-1H-pyrazolo[4,3-c]pyridin-1-yl)methyl)bicyclo[2.2.2]octan-1-yl)morpholine-3-carboxamide]
Second: Cc1cc(N2CCc3c(c(C)nn3CC34CCC(NC(=O)OC(C)(C)C)(CC3)C4)C2)c2cnn(C)c2n1 [compound 148, tert-butyl (4-((5-(1,6-dimethyl-1H-pyrazolo[3,4-b]pyridin-4-yl)-3-methyl-4,5,6,7-tetrahydro-1H-pyrazolo[4,3-c]pyridin-1-yl)methyl)bicyclo[2.2.1]heptan-1-yl)carbamate]
The IC50 of the first is 14-fold lower: 4 nM for the first, 54 nM for the second.

Going from `Cc1cc(N2CCc3c(c(C)nn3CC34CCC(NC5CCC5)(CC3)CO4)C2)c2cnn(C)c2n1` [compound 143, N-cyclobutyl-1-((5-(1,6-dimethyl-1H-pyrazolo[3,4-b]pyridin-4-yl)-3-methyl-4,5,6,7-tetrahydro-1H-pyrazolo[4,3-c]pyridin-1-yl)methyl)-2-oxabicyclo[2.2.2]octan-4-amine] to `Cc1nc(N2CCc3c(c(C)nn3CC34CCC(N5CCCC5)(CC3)CC4)C2)c2c(n1)c(C)nn2C` [compound 17, 1,3,5-trimethyl-7-(3-methyl-1-((4-(pyrrolidin-1-yl)bicyclo[2.2.2]octan-1-yl)methyl)-6,7-dihydro-1H-pyrazolo[4,3-c]pyridin-5(4H)-yl)-1H-pyrazolo[4,3-d]pyrimidine], the IC50 rises from 41 nM to 258 nM (6.3-fold).
